Measurements taken from US20080146555A1, “Uses of Kinase Inhibitors and Compositions Thereof” (GPC Biotech, Inc, priority 2004, published 2008).
Several values for one entry are separate records, joined by “and”; a condition that tells them apart may be missing. Equal entries are not always repeated. Structures can show the parent of a compound that is named as a salt. Where two headings read alike, the source gives them in different places.

Assays:
Cdk5 = Cdk5 (Homo sapiens, UniProt Q00535); test: Cdk5 inhibition; format: biochemical
Sequence of Cdk5 (Q00535 whole entry, species assumed): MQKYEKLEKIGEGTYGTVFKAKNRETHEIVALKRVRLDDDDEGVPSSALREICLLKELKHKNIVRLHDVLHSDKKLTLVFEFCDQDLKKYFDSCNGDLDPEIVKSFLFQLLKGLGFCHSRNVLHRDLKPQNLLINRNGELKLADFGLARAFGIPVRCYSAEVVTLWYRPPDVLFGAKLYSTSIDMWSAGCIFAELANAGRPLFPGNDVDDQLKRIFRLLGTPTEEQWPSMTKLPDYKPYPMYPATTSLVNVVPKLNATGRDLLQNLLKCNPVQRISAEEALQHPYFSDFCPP
Sequence of Cdk5 (Q15078 whole entry partner, species assumed): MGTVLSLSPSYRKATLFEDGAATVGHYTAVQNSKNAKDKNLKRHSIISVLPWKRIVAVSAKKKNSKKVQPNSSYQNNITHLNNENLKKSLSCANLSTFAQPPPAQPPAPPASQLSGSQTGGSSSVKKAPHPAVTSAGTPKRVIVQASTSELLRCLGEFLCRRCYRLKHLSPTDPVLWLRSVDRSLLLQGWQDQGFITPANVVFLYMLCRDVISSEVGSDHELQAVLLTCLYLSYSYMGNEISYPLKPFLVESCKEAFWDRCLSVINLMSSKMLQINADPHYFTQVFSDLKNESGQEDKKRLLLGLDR
Source text: (§1) Further inhibition results for subject compounds of the invention against other CDKs and further kinases are shown in Table 5, Table II and described in Example 6.
(§2) Table 3, Table 4, Table 5 and Table II show the results obtained for inhibition of a broad range of such kinases for subject compounds of the invention.

CDKs = target: T1, CDKs; test: Kinase panel, CDKs (average/range); format: biochemical
T1 construct: IC50 range over CDK1-7; other: 6 CDKs / CDK1-7; Cdk2/his-cyclin Eshort was expressed in Sf9 cells; Cdk2/cyclin A, cdk4/cyclin D1, and cdk6/cyclin D2 were expressed in Sf9 cells

DNA replication = test: Inhibition of DNA replication; format: cell-based; settings: 24 hour incubation
Yes = target: T2, Yes (Homo sapiens, UniProt P07947); test: Yes kinase assay; format: biochemical
T2 construct: purchased Upstate 14-478
T2 sequence (P07947 whole entry): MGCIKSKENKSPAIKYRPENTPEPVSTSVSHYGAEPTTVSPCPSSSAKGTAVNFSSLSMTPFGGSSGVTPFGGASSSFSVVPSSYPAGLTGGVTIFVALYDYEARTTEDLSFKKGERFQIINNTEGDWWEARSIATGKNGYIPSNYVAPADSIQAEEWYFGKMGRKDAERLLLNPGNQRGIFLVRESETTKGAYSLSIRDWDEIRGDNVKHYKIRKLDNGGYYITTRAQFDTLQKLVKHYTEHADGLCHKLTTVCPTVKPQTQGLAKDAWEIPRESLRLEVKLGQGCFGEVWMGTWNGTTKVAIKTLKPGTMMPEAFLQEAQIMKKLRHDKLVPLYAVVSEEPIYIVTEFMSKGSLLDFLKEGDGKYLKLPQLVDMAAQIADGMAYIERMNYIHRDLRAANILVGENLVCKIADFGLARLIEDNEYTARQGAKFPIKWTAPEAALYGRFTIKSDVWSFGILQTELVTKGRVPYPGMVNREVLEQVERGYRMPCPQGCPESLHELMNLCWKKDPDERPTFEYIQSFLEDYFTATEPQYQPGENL
Procedure: • 1. 2.5× Reaction Buffer: 20 mM MOPS, 0.5 mM EDTA. • 2. Enzyme Dilution Buffer (EDB): 20 mM MOPS pH 7.0, 1 mM EDTA, 0.01% Brij-35, 5% glycerol, 0.1% β-mercaptoethanol, 1 mg/ml BSA. • 3. Yes, active: Dilute to 0.4 ng-4 ng/μl with EDB. Use 2.5 μl per assay point. • 4. Poly(Glu-4-Tyr) substrate: Prepare a 1 mg/ml stock solution. Use 2.5 μl per assay point for a final concentration of 0.1 mg/ml per assay point. • 5. [γ-^32P]ATP: Stock 1 mCi/100 μl (3000 Ci/mmol, obtained from PerkinElmer, Cat. # BLU002A). Make 10 μl aliquots (100 μCi/vial). Before starting the assay, dilute an aliquot to 1 μCi/μl with 90 μl of 75 mM MgCl2 and 500 μM cold ATP in 20 mM MOPS, pH 7.2, 25 mM β-glycerol phosphate, 5 mM EGTA, 1 mM sodium orthovanadate, 1 mM dithiothreitol.
• 1. Add 10 μl of 2.5× Reaction Buffer per assay. • 2. Add 2.5 μl of Poly(Glu-4-Tyr) substrate (0.1 mg/ml). • 3. Add 2.5 μl of Yes, active (1 ng-10 ng). • 4. Add […] of the diluted [γ-^32P]ATP solution. • 5. Incubate for 10 minutes at 30° C. • 6. Transfer a 20 μl aliquot onto the center of a 2 cm×2 cm P81 paper. • 7. Wash the assay squares three times for 5 minutes with 0.75% phosphoric acid. • 8. Wash the assay squares once for 5 minutes with acetone. • 9. Transfer the assay squares to vial and add 5 ml scintillation cocktail. • 10. Read in scintillation counter. Compare cpm of enzyme samples to cpm of control samples that contain background control.

Cdk6 = Cdk6 (Homo sapiens, UniProt Q00534); test: Cdk6 inhibition; format: biochemical
Sequence of Cdk6 (Q00534 whole entry): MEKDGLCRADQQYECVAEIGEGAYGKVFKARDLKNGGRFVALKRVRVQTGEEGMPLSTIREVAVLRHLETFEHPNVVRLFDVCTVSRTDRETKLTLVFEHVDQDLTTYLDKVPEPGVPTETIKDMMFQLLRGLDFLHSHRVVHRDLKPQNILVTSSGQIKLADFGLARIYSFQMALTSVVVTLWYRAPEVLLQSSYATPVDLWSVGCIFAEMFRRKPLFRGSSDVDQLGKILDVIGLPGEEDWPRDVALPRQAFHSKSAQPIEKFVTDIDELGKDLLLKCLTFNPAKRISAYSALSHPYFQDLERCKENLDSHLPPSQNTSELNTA
Sequence of Cdk6 (P30279 whole entry partner): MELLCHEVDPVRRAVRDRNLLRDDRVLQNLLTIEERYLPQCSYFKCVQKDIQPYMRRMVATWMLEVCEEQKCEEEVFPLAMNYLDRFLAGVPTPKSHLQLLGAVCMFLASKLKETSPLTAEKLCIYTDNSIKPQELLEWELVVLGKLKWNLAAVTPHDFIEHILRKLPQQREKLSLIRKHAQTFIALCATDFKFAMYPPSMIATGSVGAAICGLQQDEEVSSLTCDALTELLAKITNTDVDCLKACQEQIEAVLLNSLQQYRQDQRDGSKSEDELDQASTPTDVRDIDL
Source text: as §1, §2

Blk = target: T3, Blk (Homo sapiens, UniProt P51451); test: Blk kinase assay; format: biochemical
T3 construct: purchased Upstate 14-517
T3 sequence (P51451 whole entry): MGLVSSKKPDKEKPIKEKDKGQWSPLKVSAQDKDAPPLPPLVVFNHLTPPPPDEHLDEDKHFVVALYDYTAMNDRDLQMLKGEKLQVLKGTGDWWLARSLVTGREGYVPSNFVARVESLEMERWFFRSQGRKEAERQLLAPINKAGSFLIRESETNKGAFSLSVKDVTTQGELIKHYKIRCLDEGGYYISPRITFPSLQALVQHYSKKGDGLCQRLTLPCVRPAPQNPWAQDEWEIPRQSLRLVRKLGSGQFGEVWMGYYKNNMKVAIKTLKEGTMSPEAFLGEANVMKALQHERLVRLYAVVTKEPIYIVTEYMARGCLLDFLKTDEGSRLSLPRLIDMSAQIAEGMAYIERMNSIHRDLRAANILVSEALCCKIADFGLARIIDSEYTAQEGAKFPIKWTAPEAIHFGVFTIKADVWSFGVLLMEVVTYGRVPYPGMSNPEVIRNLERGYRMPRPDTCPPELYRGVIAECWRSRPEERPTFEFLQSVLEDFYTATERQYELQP
Procedure: • 1. 10× Reaction buffer: […], 1 mM sodium orthovanadate, 1% 2-mercaptoethanol. • 2. Enzyme Dilution Buffer (EDB): 50 mM Tris-HCl pH 7.5, 0.1 mM EGTA, 0.1 mM sodium orthovanadate, 0.1% 2-mercaptoethanol 0.03% Brij-35. • 3. Blk (human), active: Dilute to 4-40 ng/μl with EDB. Use 2.5 μl per assay point. • 4. Poly(Glu-4-Tyr) (4:1): Prepare a 1 mg/ml stock. Use 2.5 μl per assay point for a final assay concentration of 0.1 mg/ml per assay point. • 5. [γ-^32P]ATP: Stock 1 mCi/100 μl (3000 Ci/mmol, obtained from PerkinElmer, Cat. # BLU002A). Make 10 μl aliquots (100 μCi/vial). Before starting the assay, dilute an aliquot to 1 μCi/μl with 90 μl of 75 mM MgCl2 and 500 μM cold ATP in 20 mM MOPS, pH 7.2, 25 mM β-glycerol phosphate, 5 mM EGTA, 1 mM sodium orthovanadate, 1 mM dithiothreitol.
• 1. Add 2.5 μl of 10× Reaction Buffer per assay. • 2. Add 2.5 μl (0.1 mg/ml) of Poly (Glu-4-Tyr) (4:1). • 3. Add 2.5 μl (10-100 ng) of Blk (human), active. • 4. Add 7.5 μl sterile, distilled water. • 5. Add 10 μl of the diluted [γ-^32P]ATP solution. • 6. Incubate for 10 minutes at 30° C. • 7. Transfer a 20 μl aliquot onto the center of a […]. • 8. Wash the assay squares three times for 5 minutes with 0.75% phosphoric acid. • 9. Wash the assay squares once for 5 minutes with acetone. • 10. Transfer the assay squares to vial and add 1 ml scintillation cocktail. • 11. Read in scintillation counter. Compare cpm of enzyme samples to cpm of control samples that contain background control.

[1] = 6 CDKs / CDK1-7, read-out: average IC50 for CDKs
[2] = read-out: YES1 Inhibition (IC50)
[3] = read-out: BLK Inhibition (IC50)

Structure (SMILES)	IC50 (Cdk5)	IC50 (CDKs; [1])	IC50 (CDKs; read-out: IC50 range over CDK1-7)	IC50 (DNA replication)	IC50 (Yes; [2])	IC50 (Cdk6)	IC50 (Blk; [3])	IC50 (Yes; kinase panel, 10 μM ATP, read-out: Yes IC50)	IC50 (Blk; kinase panel, read-out: Blk IC50)
CC(C)N1CCN(C(=O)COc2ccc(-c3n[nH]c4c3C(=O)c3c(NC(=O)NN5CCOCC5)cccc3-4)cc2)CC1 [Compound A37]	< 0.005 µM	~0.042 µM and 0.042 µM	0.003 to 0.155 µM	0.016 µM	< 0.05 µM	< 0.1 µM	< 0.1 µM		
COCCN1CCN(Cc2ccc(-c3n[nH]c4c3C(=O)c3c(NC(=O)NN5CCOCC5)cccc3-4)cc2)CC1 [Compound B16, N-[3-(4-{[4-(2-methoxyethyl)piperazinyl]methyl}phenyl)-4-oxoindeno[2,3-d]pyrazol-5-yl](morpholin-4-ylamino)carboxamide dihydrochloride]	< 0.005 µM	~0.017 µM		0.01 µM	< 0.05 µM	< 0.05 µM	< 0.1 µM	< 0.1 µM	< 0.1 µM
